From patent US20240228607A9, “METHODS FOR TREATING HIGH RISK MYELODYSPLASTIC SYNDROMES” (Northwestern University, priority 2022, published 2024)
“Also recorded” adds a separate entry of the source.

B1: siltuximab (antibody, chains of the INN, looked up, V domains shown)
VH: EVQLVESGGKLLKPGGSLKLSCAASGFTFSSFAMSWFRQSPEKRLEWVAEISSGGSYTYYPDTVTGRFTISRDNAKNTLYLEMSSLRSEDTAMYYCARGLWGYYALDYWGQGTSVTVSS
VL: QIVLIQSPAIMSASPGEKVTMTCSASSSVSYMYWYQQKPGSSPRLLIYDTSNLASGVPVRFSGSGSGTSYSLTISRMEAEDAATYYCQQWSGYPYTFGGGTKLEIK

Columns and labels:
MDSL cells [1] = assay: MDSL cell proliferation (CCK-8); format: cell-based; conditions: 50 μg/mL, vs human IgG control
Description: (§1) (A) Cultured MDS-derived cell line (MDSL) cells were treated with tocilizumab or IgG for 1 hour at the indicated concentration. Cells were then challenged with human recombinant IL-6 (10 ng/mL) for 15 min followed by a western blot assay of p-STAT3. Actin was used as a loading control. (B) 1×10^4/well MDSL cells were seeded in a 96-well plate on day 0 in MDSL culture medium with 50 μg/mL tocilizumab or 50 μg/mL human IgG control. Relative cell number was assessed with CCK-8 reagent at the indicated time points. (C) 1×10^6 MDSL cells were transplanted into sub-lethally irradiated NSG recipient mice. 10 days after transplantation, mice were subjected to weekly treatment with tocilizumab (TCZ) or human IgG (8 mg/kg) by intraperitoneal administration. Engraftment was evaluated 60 days post transplantation via flow cytometry assays of hCD45+ mononuclear cells in the peripheral blood. N=5 in each group, data are presented as Mean±SD. (D) Quantification of the percentage of hCD45+ cells in C. (E-F) Colony-forming unit (CFU) assays in normal (E) and high risk MDS patient (F) bone marrow derived CD34+ cells. 1×10^3 normal (E) or 2×10^3 patient CD34+ cells (F) were seeded in MethoCult medium supplemented with human IgG or tocilizumab (50 μg/mL) on day 0. The number of colonies was accessed on day 14. Triplicate assay colonies were independently identified by two individuals. […]

[2] = tested on: normal bone marrow CD34+ cells; assay: Colony-forming unit (CFU) assay, normal bone marrow CD34+ cells; format: cell-based; conditions: 50 μg/mL, day 14, vs human IgG
Description: as §1, with “C.” for “C. (E-F) Colony-forming unit (CFU) assays in normal (E) and high risk MDS patient (F) bone marrow derived CD34+ cells. 1×10^3 normal (E) or 2×10^3 patient CD34+ cells (F) were seeded in MethoCult medium supplemented with human IgG or tocilizumab (50 μg/mL) on day 0. The number of colonies was accessed on day 14. Triplicate assay colonies were independently identified by two individuals.”
(§2) For the CFU assay, CD34+ cells were thawed in a 37° C. water bath. […] Cell viability was assessed with trypan blue staining and counted with Bio-Rad TC20 cell counter. […] 14 days after seeding, the CFU assay was ready for evaluation. Colonies were counted under an inverted microscope (EVOS M5000, Thermo Fisher), and the colonies were identified by two independent individuals.

p-STAT3 = assay: Western blot of p-STAT3 in MDSL cells challenged with human recombinant IL-6; format: cell-based; conditions: 1 hour treatment, then human recombinant IL-6 10 ng/mL for 15 min, vs IgG
Description: as §1

MDSL cells [3] = assay: Xenograft of MDSL cells in NSG mice; format: in vivo, mouse; conditions: 8 mg/kg weekly intraperitoneal; for spleen weight: NSG mice transplanted with MDSL cells
Description: (A) Cultured MDS-derived cell line (MDSL) cells were treated with tocilizumab or IgG for 1 hour at the indicated concentration. Cells were then challenged with human recombinant IL-6 (10 ng/mL) for 15 min followed by a western blot assay of p-STAT3. Actin was used as a loading control. (B) 1×10^4/well MDSL cells were seeded in a 96-well plate on day 0 in MDSL culture medium with 50 μg/mL tocilizumab or 50 μg/mL human IgG control. Relative cell number was assessed with CCK-8 reagent at the indicated time points. (C) 1×10^6 MDSL cells were transplanted into sub-lethally irradiated NSG recipient mice. 10 days after transplantation, mice were subjected to weekly treatment with tocilizumab (TCZ) or human IgG (8 mg/kg) by intraperitoneal administration. Engraftment was evaluated 60 days post transplantation via flow cytometry assays of hCD45+ mononuclear cells in the peripheral blood. N=5 in each group, data are presented as Mean±SD. (D) Quantification of the percentage of hCD45+ cells in C. (E-F) Colony-forming unit (CFU) assays in normal (E) and high risk MDS patient (F) bone marrow derived CD34+ cells. 1×10^3 normal (E) or 2×10^3 patient CD34+ cells (F) were seeded in MethoCult medium supplemented with human IgG or tocilizumab (50 μg/mL) on day 0. The number of colonies was accessed on day 14. Triplicate assay colonies were independently identified by two individuals. Data are presented as Mean±SD. E, G, M, GM, and GEMM represent BFU/CFU-E, CFU-G, CFU-M, CFU-GM, and CFU-GEMM, respectively, in both E and F.
NOD/SCID-IL2Rg mice (NSG) mice were purchased from the Jackson Laboratory (Stock #005557). 1×10^6 of MDS-derived cell line (MDSL) cells were retro-orbitally injected into 12-week-old sub-lethally irradiated (250 rad) female NSG mice. Ten days after transplantation, human IgG isotype control (BE0297, InVivoMab) or tocilizumab (Selleck) were administered at 8 mg/kg weekly via intraperitoneal injection. To evaluate the engraftment, peripheral blood was collected from tail vein on day 60. […]

[4] = tested on: high risk MDS patient bone marrow derived CD34+ cells; assay: Colony-forming unit (CFU) assay, high risk MDS patient bone marrow CD34+ cells; format: cell-based; conditions: CD34+ cells from high risk MDS patients, 50 μg/mL, day 14, vs human IgG
Description: as §1, with “C.” for “C. (E-F) Colony-forming unit (CFU) assays in normal (E) and high risk MDS patient (F) bone marrow derived CD34+ cells. 1×10^3 normal (E) or 2×10^3 patient CD34+ cells (F) were seeded in MethoCult medium supplemented with human IgG or tocilizumab (50 μg/mL) on day 0. The number of colonies was accessed on day 14. Triplicate assay colonies were independently identified by two individuals.”
as §2

MDSL cells [5] = assay: Cell death in MDSL cells; format: cell-based, human
[6] = transfusion-dependent patients, low or intermediate-1-risk MDS, vs placebo; cited from earlier work

Molecule | cell proliferation (relative cell number, CCK-8) (MDSL cells [1]) | colony expansion or composition / colony numbers [2] | colony expansion or composition / colony numbers ([2]; listed as Tocilizumab) | p-STAT3 (p-STAT3) | spleen weight (MDSL cells [3]) | spleen weight (MDSL cells [3]; listed as Tocilizumab) | MDSL engraftment (hCD45+ mononuclear cells in the peripheral blood) (MDSL cells [3]; NSG mice, 60 days post transplantation, vs human IgG) | colony numbers / clonogenicity [4] | colony numbers / clonogenicity ([4]; listed as Tocilizumab) | cell death (MDSL cells [5]) | RBC transfusions [6]
tocilizumab | decreased cell proliferation; also recorded: reduces cell proliferation | no effects on the colony numbers | did not affect colony expansion or composition | significant reduction | reduces spleen weight | reduced the spleen weight | significantly reduced MDSL engraftment; also recorded: markedly reduced the engraftment | markedly reduced; also recorded: reduces cell proliferation and colony formation; also recorded: reduces the colony numbers | significantly reduced clonogenicity | partial induction of cell death; also recorded: partially induces cell death | –
B1 | – | – | – | – | – | – | – | – | – | – | no reduction in RBC transfusions
